As usually defined, the ED50 is the dose that gives a 50% effect, or the effect in half of the subjects. The term LD50 denotes the dose at which mortality reaches 50%.

Structures can show the parent of a compound that is named as a salt.

The values that follow come from patent US4562211A, “Pharmaceutically active 2-substituted-1-(omega-aminoalkoxy)benzenes” (Mitsubishi Chemical Industries, Ltd., priority 1976, dated 1985).

The test system of data set [1] is electroshock induced tonic extensor. The data set can be described thus: Anticonvulsant activity: antagonism of electroshock induced tonic extensor. The conditions noted are these: Mus musculus, po; mice; p.o.; dose preventing 50% of response; read-out: Anti-Convulsant Activity ED50. The format is in vivo.
A further data set concerns tremorine induced tremor. Briefly: Central anticholinergic effect: antitremorine effect. The format is in vivo. The conditions noted are these: Mus musculus, po, mice.
Data set [2] is described as follows: Acute toxicity in mice, LD50 (Litchfield-Wilcoxon). As to conditions: mouse, in vivo, ip. On the procedure:
The compounds have been tested in mice for antidepressant, sedative, anticonvulsant and anticholinergic activity. The compounds were administered intraperitoneally and the activities of the compounds were compared with those of Amitriptyline.
LD50 was calculated by Litchfield-Wilcoxon method.

Data set [3] has as its system spontaneous motor activity. The data set can be described thus: CNS depressant activity: spontaneous motor activity depression (ANIMEX apparatus). As to conditions: Mus musculus, po, mice. The format is in vivo.
Data set [4] relates to neurological deficit as measured by traction test. The data set can be described thus: CNS depressant activity: muscle relaxant action, traction test. The format is in vivo. The conditions noted are these: Mus musculus, po, mice.
Data set [5] has as its system reserpine (5 mg/kg i.p.) induced hypothermia. Briefly: Antireserpine activity in mice (antagonism of reserpine induced hypothermia), relative to Amitriptyline. In kind it is in vivo. As to conditions: Amitriptyline=1. On the procedure: The 2-substituted-1-(omega-aminoalkoxy)benzenes and the acid addition salts thereof may be purified by recrystallization employing a suitable solvent such as alcohol-ether.
The compounds were administered intraperitoneally and the activities of the compounds were compared with those of Amitriptyline.

For `CN(C)CCC=C1c2ccccc2CCc2ccccc21` [Amitriptyline, reference compound], the ED50 in data set [1] amounted to 19 mg/kg; in the data set with tremorine induced tremor it was 11 mg/kg; in data set [3] it was 28 mg/kg; in data set [4], 40 mg/kg. In data set [2], the LD50 was 300 mg/kg.

In the case of `CNCCCCOc1c(C)cccc1Cc1ccccc1` [No. 1, 2-(4-methylaminobutoxy)-3-methyldiphenylmethane hydrochloride], in data set [5], the “Antireserpine activity, Relative Potency” value turned out to be 0.56. This molecule also came in with an LD50 in data set [2] of 500 to 700 mg/kg.

Regarding `Cc1cccc(Cc2ccccc2)c1OCCCCN(C)C` [No. 2, 2-(4-dimethylaminobutoxy)-3-methyldiphenylmethane], the “Antireserpine activity, Relative Potency” value in data set [5] is on record as 0.66. For the same molecule, in data set [2], the LD50 was in the range of 500 to 700 mg/kg.

As for `CNCCCCOc1ccccc1Cc1ccccc1O` [No. 8, 2-(4-methylaminobutoxy)-2'-hydroxydiphenylmethane], the ED50 in data set [1] is 190 mg/kg; with tremorine induced tremor, above 200 mg/kg; in data set [3] it was 175 mg/kg; in data set [4] it was 390 mg/kg.

Regarding `Cc1ccc(OCCCCN(C)C)c(Cc2ccccc2)c1` [compound 3], the “Antireserpine activity, Relative Potency” value in data set [5] is given as 0.70. The molecule also yielded a 50% lethal dose (LD50) in data set [2] of 500 to 700 mg/kg.

With `CNCCCCOc1ccccc1Cc1ccc(C)cc1` [compound 4], the “Antireserpine activity, Relative Potency” value in data set [5] was 0.44.

Consider `CNCCCCOc1ccccc1Cc1ccc(Cl)cc1` [compound 5], for which the “Antireserpine activity, Relative Potency” value in data set [5] was determined as 0.44.

For the molecule `COc1ccc(Cc2ccccc2OCCCCN(CCO)CCO)cc1` [compound 6], in data set [5], the “Antireserpine activity, Relative Potency” value amounted to 0.44.

`CNCCCCOc1ccccc1Cc1ccccc1OC` [compound 7]: the “Antireserpine activity, Relative Potency” value in data set [5] was 0.85. Besides, the LD50 in data set [2] came out at 600 mg/kg.

For `CNCCCCOc1ccccc1Cc1ccccc1O` [compound 8], the “Antireserpine activity, Relative Potency” value in data set [5] stood at 1.00. This molecule yielded an LD50 in data set [2] of 600 to 700 mg/kg.

Consider `CN(C)CCCCOc1ccccc1Cc1ccccc1O` [compound 9], for which the “Antireserpine activity, Relative Potency” value in data set [5] is listed as 0.77.

Take `CCOc1ccccc1Oc1ccccc1OCCCCNC` [compound 10]: the “Antireserpine activity, Relative Potency” value in data set [5] is recorded as 0.90.

Take `CNCCCCOc1ccccc1Oc1ccccc1C` [compound 11]: the “Antireserpine activity, Relative Potency” value in data set [5] was 0.65.

As for `CNCCCOc1ccccc1Oc1ccccc1C` [compound 12], the “Antireserpine activity, Relative Potency” value in data set [5] is listed as 1.12.

On to `Cc1ccccc1Oc1ccccc1OCCCN(C)C` [compound 13], for which the “Antireserpine activity, Relative Potency” value in data set [5] is listed as 0.95.

On to `CCNCCCOc1ccccc1Oc1ccccc1C` [compound 14], for which the “Antireserpine activity, Relative Potency” value in data set [5] is reported as 0.46.

With `CCN(CC)CCCOc1ccccc1Oc1ccccc1C` [compound 15], the “Antireserpine activity, Relative Potency” value in data set [5] was 0.44.

Turning to `Cc1ccccc1Oc1ccccc1OCCCN1CCCC1` [compound 16], the “Antireserpine activity, Relative Potency” value in data set [5] is on record as 0.42.
